We go through six compounds from paper PMC11439681, “The identification of potent dual-target monopolar spindle 1 (MPS1) and histone deacetylase 8 (HDAC8) inhibitors through pharmacophore modeling, molecular docking, molecular dynamics simulations, and biological evaluation” (Frontiers in Pharmacology, 2024).

In one assay the test system is HepG2 liver cancer cells. The assay can be described thus: MTT cytotoxicity assay, HepG2. It counts as cell-based. Particulars: Homo sapiens, 72 h cell treatment. As for the experimental part:
The cells (5 × 10^4 cells/well) were incubated overnight in 96-well plates. A series of solutions containing varying concentrations of inhibitors were added and incubated at 37°C for a period of 72 h. Subsequently, the culture medium was removed, followed by a subsequent incubation of the cells with a 5 mg/mL MTT stock solution for 4 h. After centrifugation, the precipitate was solubilized in DMSO and gently shaken for 15 min. Finally, the absorbance measurement at 570 nm was completed using a microplate reader. Data analysis was performed using GraphPad Prism 6.0 software.

In the next assay the target is T1, MPS1 (Homo sapiens, UniProt P33981).
T1 construct: purchased Abcam
T1 sequence (P33981 1-857): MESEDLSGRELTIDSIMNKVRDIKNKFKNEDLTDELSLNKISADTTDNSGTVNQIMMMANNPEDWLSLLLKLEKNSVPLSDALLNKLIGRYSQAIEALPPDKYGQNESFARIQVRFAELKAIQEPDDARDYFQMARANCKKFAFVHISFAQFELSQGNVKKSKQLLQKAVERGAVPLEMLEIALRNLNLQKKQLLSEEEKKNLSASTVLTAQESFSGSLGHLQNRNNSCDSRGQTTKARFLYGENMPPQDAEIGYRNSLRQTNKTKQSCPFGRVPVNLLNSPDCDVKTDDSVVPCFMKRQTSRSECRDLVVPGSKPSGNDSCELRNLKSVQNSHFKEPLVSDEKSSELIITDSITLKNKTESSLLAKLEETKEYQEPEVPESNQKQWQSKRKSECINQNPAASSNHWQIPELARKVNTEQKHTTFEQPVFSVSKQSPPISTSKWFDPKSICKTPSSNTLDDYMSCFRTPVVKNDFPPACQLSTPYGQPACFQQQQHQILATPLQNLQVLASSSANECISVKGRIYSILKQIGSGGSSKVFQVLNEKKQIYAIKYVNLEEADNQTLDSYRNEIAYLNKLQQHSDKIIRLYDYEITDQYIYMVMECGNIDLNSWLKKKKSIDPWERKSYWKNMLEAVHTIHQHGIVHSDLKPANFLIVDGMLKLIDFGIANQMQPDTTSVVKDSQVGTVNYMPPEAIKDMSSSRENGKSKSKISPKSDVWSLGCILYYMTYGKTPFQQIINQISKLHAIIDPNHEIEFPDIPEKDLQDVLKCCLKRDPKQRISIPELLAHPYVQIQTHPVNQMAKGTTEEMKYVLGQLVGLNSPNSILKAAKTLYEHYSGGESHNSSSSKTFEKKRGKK
The assay can be described thus: In vitro MPS1 inhibitory assay. The class given is biochemical. The method, then: The methodology is as previously described ([Naud et al., 2013]). In brief, the experiment was conducted using 384-well black low-volume plates, which were loaded with MPS1 (concentration range of 3–12.5 nM), 5 μM fluorescence-labelled peptide (sequence: 5FAM-[…]-CONH2), 10 μM ATP, 1% (v/v) DMSO or the test compound (concentrations in 1% (v/v) DMSO ranged from 0.25 to 100 μM), and assay buffer. […]. The plate was read on a Caliper EZ reader II (PerkinElmer Life Sciences, Waltham, MA, United States). […]

The target of a further assay is T2, HDAC8 (Homo sapiens, UniProt Q9BY41).
T2 construct: purchased Abcam
T2 sequence (Q9BY41 1-377): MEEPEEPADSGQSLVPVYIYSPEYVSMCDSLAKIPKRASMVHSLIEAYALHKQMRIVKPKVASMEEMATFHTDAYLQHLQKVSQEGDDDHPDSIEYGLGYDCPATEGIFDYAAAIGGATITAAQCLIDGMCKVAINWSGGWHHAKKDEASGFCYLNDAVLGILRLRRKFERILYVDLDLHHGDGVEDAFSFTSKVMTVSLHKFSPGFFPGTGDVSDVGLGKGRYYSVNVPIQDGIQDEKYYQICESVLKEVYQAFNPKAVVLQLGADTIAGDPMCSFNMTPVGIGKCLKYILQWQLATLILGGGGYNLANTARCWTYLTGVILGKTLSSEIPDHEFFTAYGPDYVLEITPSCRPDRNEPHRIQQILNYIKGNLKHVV
As to the kind of experiment: In vitro HDAC8 inhibitory assay. It counts as biochemical. The settings on record: 90 min at 37°C. As for the experimental part:
Inhibition of HDAC8 was determined in 96-well plates. […] The assessment of fluorescence intensity was executed at 390 nm and 460 nm via a microplate reader.

As for `CC(C)(C)OC(=O)n1c(-c2cn[nH]c2C(F)F)cc2cnc(Nc3ccc(-c4cnc(C(F)(F)F)n4/C=C/C(=O)NO)cc3Cl)cc21` [MPH-6], the IC50 in the assay with HepG2 liver cancer cells came out at 0.53 µM; against MPS1, 10.8 ± 0.69 nM; on HDAC8, 16.6 ± 2.06 nM.
As for `COc1cc(-c2cncn2/C=C/C(=O)NO)ccc1Nc1cc2c(cn1)cc(C1C=CN=C1)n2C(=O)OC(C)(C)C` (stereo not shown) [MPH-2], the IC50 in the assay with HepG2 liver cancer cells was determined as 0.32 µM; on MPS1 it was 7.6 ± 0.35 nM; against HDAC8 it was 8.15 ± 0.58 nM.
Consider `O=C(/C=C/c1cccc(S(=O)(=O)Nc2ccccc2)c1)NO` [Belinostat, reference compound], for which, at MPS1 (10 μM ATP, 60 min, room temperature), the “MPS1 (IC50, nM)” value is on record as “No inhibition”.
Take `CC1=CC(c2cc3cnc(Nc4ccc(-c5cccc[n+]5/C=C/C(=O)NO)cc4Cl)cc3n2C(=O)OC(F)(F)F)C=N1` (stereo not shown) [MPH-1]: the values for the IC50 in the assay on HepG2 liver cancer cells, at MPS1 and at HDAC8 were 0.47 µM, 9.38 ± 0.41 nM and 17.5 ± 2.32 nM, respectively.
For the compound `COc1cc(-c2cnc(C)n2/C=C/C(=O)NO)ccc1Nc1cc2c(cn1)cc(C1C=CN=C1)n2C(=O)OC(F)(F)F` (stereo not shown) [MPH-4], the IC50 turned out to be 0.41 µM in the assay with HepG2 liver cancer cells, 11.7 ± 0.95 nM on MPS1 and 13.5 ± 0.61 nM against HDAC8.
In the case of `Cc1ncc(-c2ccc(Nc3cc4c(cn3)cc(C3C=NC(C(F)(F)F)=C3)n4C(=O)OC(C)(C)C)cc2)n1/C=C/C(=O)NO` (stereo not shown) [MPH-3], the IC50 was 0.55 µM with HepG2 liver cancer cells, 13.2 ± 0.82 nM at MPS1 and 15.2 ± 1.94 nM against HDAC8.

Broadly, the IC50 is the concentration needed to halve the response being measured. A high value points to a need for much substance.
